Results taken from patent US9363996B2, “Compositions and method for blocking ethylene response in field crops using 3-(cy-clopropyl-l-enyl)-propanoic salt” (Yissum Research Development Company of the Hebrew …, priority 2009, dated 2016).

Legend:
wheat plants [1] = experiment: Ethephon-induced flag leaf epinasty of wheat plants after spike heading; type: in vivo, wheat (Triticum turgidum var. 'Gdera'); settings: Ethephon 750 μL L^−1 spray alone
Procedure: (1) Abscission—This is a very sensitive model system for studying the effects of plant hormones. Ethylene induces the process of abscission, while auxin delays it. In the laboratory the experimental system is based on plant organ explants, which include the abscission zone. Abscission is induced by exposure to ethylene and at the termination of the experiment the number of abscised organs, usually either leaf blades or petioles are counted and the fraction of abscission is calculated. In the case of fruit, the decrease in fruit retention force is analyzed. In cotton, when WS-CPD (the ethylene-action antagonist herein disclosed) is tested, the whole plants or explants are pretreated by spraying with the antagonist, dissolved in a phosphate buffer solution (10-20 mM, pH 7.0) including 0.1% commercially available Kinetic™ as surfactant, and left to incubate for a predetermined time, usually between 6 and 24 h. […] At the end of the experiment the percentage of abscission is determined. […] At the end of the experiment a dimethylsulfoxide (DMSO) extract of the plant tissue is prepared, and the chlorophyll content of the extract is determined by spectrophotometric analysis. […] The extent of ethylene-induced epinasty of leaves is determined by measuring the change of the angle between the petiole and the stem shoot or blade. […]

wheat plants [2] = experiment: Ethephon-induced chlorophyll degradation in wheat leaves, glumes and chaffs; type: in vivo, wheat (Triticum turgidum var. 'Gdera'); settings: for reduction of chlorophyll content: chaffes; for reduction of chlorophyll content / reduction in chlorophyll content: milky stage I; for decrease of chlorophyll content: Ethephon 250 and 750 μL L^−1 at milky stage I, after 5-6 days; for reduction in chlorophyll content: glumes
Procedure: (§1) (1) Abscission—This is a very sensitive model system for studying the effects of plant hormones. Ethylene induces the process of abscission, while auxin delays it. In the laboratory the experimental system is based on plant organ explants, which include the abscission zone. Abscission is induced by exposure to ethylene and at the termination of the experiment the number of abscised organs, usually either leaf blades or petioles are counted and the fraction of abscission is calculated. In the case of fruit, the decrease in fruit retention force is analyzed. In cotton, when WS-CPD (the ethylene-action antagonist herein disclosed) is tested, the whole plants or explants are pretreated by spraying with the antagonist, dissolved in a phosphate buffer solution (10-20 mM, pH 7.0) including 0.1% commercially available Kinetic™ as surfactant, and left to incubate for a predetermined time, usually between 6 and 24 h. The plants or explants are then further exposed for 24 h to ethylene gas (5 to 20 μL L^−1). The plants or explants are then ventilated and incubated for the required time under controlled conditions. At the end of the experiment the percentage of abscission is determined. (2) Chlorophyll degradation—This is a standard model for studying senescence. Plant material (whole plants, excised leaves or leaf discs) are pretreated. In cotton, tobacco and wheat, when WS-CPD is tested, the whole plants or explants are pretreated by spraying with the antagonist, dissolved in phosphate buffer solution (10-20 mM, pH 7.0) including 0.1% commercially available Kinetic™ surfactant, and left to incubate for a predetermined time, usually between 6 and 241. The plants or explants are then further exposed for 24 h to ethylene gas (1 to 100 μL L^−1), or sprayed with Ethephon™ (wheat; 250 to 750 μL L^−1). The plants or explants are then ventilated and incubated for the required time under controlled conditions. At the end of the experiment a dimethylsulfoxide (DMSO) extract of the plant tissue is prepared, and the chlorophyll content of the extract is determined by spectrophotometric analysis. The chlorophyll content is reported either on a fresh, dry weight basis, or on a surface area basis. (3) Epinasty—This is also one of the classical methods for studying ethylene effects in plants. The extent of ethylene-induced epinasty of leaves is determined by measuring the change of the angle between the petiole and the stem shoot or blade. After exposure of the intact plant to ethylene, the upright grown leaves bend downward. The increase in the angle values (degrees) between petiole and the stem is used as a measure of the effect of the ethylene. When WS-CPD is tested on cotton and wheat plants, the whole plants are pretreated by spraying with the antagonist dissolved in phosphate buffer solution (10-20 mM, pH 7.6) including 0.1% Kinetic™ as surfactant, and left to incubate for a predetermined time, usually between 6 and 24 h. The plants are then further exposed for 24 h to ethylene gas (cotton, 5 to 10 μL L^−1), or sprayed with Ethephon™ (wheat, 250 to 750 μL L^−1). The plants are then ventilated and incubated for the required time under controlled conditions. The epinastic effect is expressed by measuring the degree values of the downward curvature between the blade and petiole (cotton, FIGS. 1-3) or between the blade and the stem (wheat, FIGS. 31 and 32). (4) Wheat Grain yield—This is a common test of the effects of exposure of monocot plants either to environmental stresses such as drought that induce senescence by increasing endogenous ethylene production. Excessive internal or external ethylene will accelerate senescence which will lead to reduced grain yield. In this project the intact plants were grown in the greenhouse up to the spike hading at milky stage I and II. The plants were then sprayed with the dissolved WS-CPD in phosphate buffer solution (10 mM, pH 7.6) including 0.1% Kinetic™ as surfactant. Young Cotton Seedlings […]

wheat plants [3] = experiment: Wheat grain weight at the milky stages after Ethephon treatment; type: in vivo, wheat (Triticum turgidum var. 'Gdera'); settings: Ethephon 750 μL L^−1, sandy soil
Procedure: as §1

[4] = test system: young cotton leaf explants; experiment: Ethylene-induced petiole abscission of young cotton leaf explants; type: in vivo, cotton (Gossyium hirsutum barbadense L.); settings: ethylene alone
Procedure: (1) Abscission—This is a very sensitive model system for studying the effects of plant hormones. Ethylene induces the process of abscission, while auxin delays it. In the laboratory the experimental system is based on plant organ explants, which include the abscission zone. Abscission is induced by exposure to ethylene and at the termination of the experiment the number of abscised organs, usually either leaf blades or petioles are counted and the fraction of abscission is calculated. In the case of fruit, the decrease in fruit retention force is analyzed. In cotton, when WS-CPD (the ethylene-action antagonist herein disclosed) is tested, the whole plants or explants are pretreated by spraying with the antagonist, dissolved in a phosphate buffer solution (10-20 mM, pH 7.0) including 0.1% commercially available Kinetic™ as surfactant, and left to incubate for a predetermined time, usually between 6 and 24 h. The plants or explants are then further exposed for 24 h to ethylene gas (5 to 20 μL L^−1). The plants or explants are then ventilated and incubated for the required time under controlled conditions. At the end of the experiment the percentage of abscission is determined. (2) Chlorophyll degradation—This is a standard model for studying senescence. Plant material (whole plants, excised leaves or leaf discs) are pretreated. In cotton, tobacco and wheat, when WS-CPD is tested, the whole plants or explants are pretreated by spraying with the antagonist, dissolved in phosphate buffer solution (10-20 mM, pH 7.0) including 0.1% commercially available Kinetic™ surfactant, and left to incubate for a predetermined time, usually between 6 and 241. […] At the end of the experiment a dimethylsulfoxide (DMSO) extract of the plant tissue is prepared, and the chlorophyll content of the extract is determined by spectrophotometric analysis. […] The extent of ethylene-induced epinasty of leaves is determined by measuring the change of the angle between the petiole and the stem shoot or blade. […]

tobacco seedlings = experiment: Ethylene-induced chlorophyll degradation in tobacco seedling leaves; type: in vivo, tobacco (Nicotiana tabacum var. 'Samsun'); settings: ethylene alone
Procedure: (1) Abscission—This is a very sensitive model system for studying the effects of plant hormones. Ethylene induces the process of abscission, while auxin delays it. In the laboratory the experimental system is based on plant organ explants, which include the abscission zone. Abscission is induced by exposure to ethylene and at the termination of the experiment the number of abscised organs, usually either leaf blades or petioles are counted and the fraction of abscission is calculated. In the case of fruit, the decrease in fruit retention force is analyzed. In cotton, when WS-CPD (the ethylene-action antagonist herein disclosed) is tested, the whole plants or explants are pretreated by spraying with the antagonist, dissolved in a phosphate buffer solution (10-20 mM, pH 7.0) including 0.1% commercially available Kinetic™ as surfactant, and left to incubate for a predetermined time, usually between 6 and 24 h. The plants or explants are then further exposed for 24 h to ethylene gas (5 to 20 μL L^−1). The plants or explants are then ventilated and incubated for the required time under controlled conditions. At the end of the experiment the percentage of abscission is determined. (2) Chlorophyll degradation—This is a standard model for studying senescence. Plant material (whole plants, excised leaves or leaf discs) are pretreated. In cotton, tobacco and wheat, when WS-CPD is tested, the whole plants or explants are pretreated by spraying with the antagonist, dissolved in phosphate buffer solution (10-20 mM, pH 7.0) including 0.1% commercially available Kinetic™ surfactant, and left to incubate for a predetermined time, usually between 6 and 241. The plants or explants are then further exposed for 24 h to ethylene gas (1 to 100 μL L^−1), or sprayed with Ethephon™ (wheat; 250 to 750 μL L^−1). The plants or explants are then ventilated and incubated for the required time under controlled conditions. At the end of the experiment a dimethylsulfoxide (DMSO) extract of the plant tissue is prepared, and the chlorophyll content of the extract is determined by spectrophotometric analysis. The chlorophyll content is reported either on a fresh, dry weight basis, or on a surface area basis. (3) Epinasty—This is also one of the classical methods for studying ethylene effects in plants. The extent of ethylene-induced epinasty of leaves is determined by measuring the change of the angle between the petiole and the stem shoot or blade. After exposure of the intact plant to ethylene, the upright grown leaves bend downward. The increase in the angle values (degrees) between petiole and the stem is used as a measure of the effect of the ethylene. […]

wheat seedlings = experiment: Third leaf growth of young wheat seedlings exposed to ethylene; type: in vivo, wheat (Triticum turgidum var. 'Gdera'); settings: for inhibition of growth of the third leaf: additional experiment

| SMILES | flag leaf epinasty (wheat plants [1]) | reduction of chlorophyll content (wheat plants [2]; Ethephon 250 μL L^−1) | reduction of chlorophyll content (wheat plants [2]; Ethephon 750 μL L^−1) | decrease of chlorophyll content (wheat plants [2]; flag leaf) | reduction of the content of chlorophyll (wheat plants [2]; flag leaf, Ethephon 750 μL L^−1, milky stage II) | chlorophyll lower compared with the untreated control spikes (wheat plants [2]; glumes and chaffs, Ethephon 750 μL L^−1, milky stage II) | reduction in chlorophyll content (wheat plants [2]; Ethephon 250 μL L^−1) | reduction in chlorophyll content (wheat plants [2]; Ethephon 750 μL L^−1) | decrease of chlorophyll content (wheat plants [2]; leaf II) | reduction of the content of chlorophyll (wheat plants [2]; leaf II, Ethephon 750 μL L^−1, milky stage II) | reduction of grain weight (wheat plants [3]; stage I) | reduction of grain weight (wheat plants [3]; stage II) | rate of petiole abscission [4] | reduction of chlorophyll content (tobacco seedlings; mature (lower) leaves) | decrease in chlorophyll content as compared with air-treated leaves (tobacco seedlings; young (upper) leaves) | inhibition of growth of the third leaf (wheat seedlings; ethylene 1.6 μL L^−1) | inhibition of growth of the third leaf (wheat seedlings; ethylene 20 μL L^−1) | length of the third leaf longer than air-control leaf (wheat seedlings; ethylene 1 μL L^−1, continuous exposure) | inhibition of growth of the third leaf compared to air control (wheat seedlings; ethylene 10 μL L^−1) | inhibition of growth of the third leaf compared to air control (wheat seedlings; ethylene 100 μL L^−1) |
| --- | --- | --- | --- | --- | --- | --- | --- | --- | --- | --- | --- | --- | --- | --- | --- | --- | --- | --- | --- | --- |
| O=P(O)(O)CCCl [Ethephon, reference compound] | strong leaf epinasty | 33% | 28% | 16-21% | 33% | 12% | 10% | 40% | 21-22% | 47% | 4% | 18% | – | – | – | – | – | – | – | – |
| C=C [ethylene] | – | – | – | – | – | – | – | – | – | – | – | – | accelerated | 72% | 17% | 20% | 35% | 50% | 50% | 30% |
